This is an account of results in patent publication US11590116B2 (THERAVANCE BIOPHARMA R&D IP, LLC, priority 2019, dated 2023).

Molecules are shown by their SMILES.

The target in experiment [1] is T1, recombinant human ALK5 (TGF-βR1) protein (Homo sapiens, UniProt P36897).
T1 construct: purchased Life Technologies PR9075A
T1 sequence (P36897 34-503): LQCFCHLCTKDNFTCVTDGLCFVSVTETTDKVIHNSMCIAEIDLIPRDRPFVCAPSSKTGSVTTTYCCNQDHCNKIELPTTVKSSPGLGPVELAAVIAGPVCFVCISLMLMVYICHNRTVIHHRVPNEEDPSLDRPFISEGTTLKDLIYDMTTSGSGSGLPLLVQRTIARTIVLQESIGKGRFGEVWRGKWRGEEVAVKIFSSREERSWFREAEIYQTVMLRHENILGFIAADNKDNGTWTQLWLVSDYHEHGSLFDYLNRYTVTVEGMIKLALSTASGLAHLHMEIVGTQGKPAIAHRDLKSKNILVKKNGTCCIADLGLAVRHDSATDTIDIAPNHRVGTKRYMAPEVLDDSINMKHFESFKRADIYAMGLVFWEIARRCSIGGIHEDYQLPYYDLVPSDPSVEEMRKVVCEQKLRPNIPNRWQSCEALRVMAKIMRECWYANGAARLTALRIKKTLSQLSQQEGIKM
The experiment can be described thus: Biochemical ALK5 (TGF-βR1) assay to measure pKi (LANCE Ultra ULight kinase assay). As to conditions: apparent pKi from pIC50 by Cheng-Prusoff, read-out: ALK5 pKi (converted). The gist of the method:
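After a 60 min room-temperature preincubation of ALK5 with compound, phosphorylation proceeds 60 min at 37 °C on ATP addition (125 μM as 5× stock). Detection: Eu-labelled phospho-Thr1342 Topo IIα antibody in EDTA buffer, pH 7.0; emission 665 nm.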

The subject of experiment [2] is TGF-β-stimulated SMAD3 phosphorylation in BEAS-2B cells. The experiment can be described thus: Cellular ALK5 potency assay, inhibition of TGF-β stimulated pSMAD3 formation in BEAS-2B cells. The format is cell-based. As to conditions: Homo sapiens; inhibition of TGF-β stimulated pSMAD3 formation, BEAS-2B cells; read-out: BEAS2B pIC50 (converted). The gist of the method: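 SMAD3 phosphorylation was measured by AlphaLISA after 30 min TGF-β stimulation (10 ng/mL final) of BEAS-2B cells preincubated 1 h with compound at 37 °C. Results given as pIC50.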

Consider `Cc1cccc(-c2[nH]cnc2-c2ccc3ncc(N4CCN(C)C(CC(=O)OCC5CNC5)C4)cc3c2)n1` (stereo not shown) [Compound 640, azetidin-3-ylmethyl 2-[1-methyl-4-[6-[5-(6-methyl-2-pyridyl)-1H-imidazol-4-yl]-3-quinolyl]piperazin-2-yl]acetate], for which the Ki in experiment [1] was 0.0398 to 0.316 nM. Moreover, the IC50 in experiment [2] is 1580 to 10000 nM.
In the same order, the values of `Cc1cccc(-c2[nH]cnc2-c2ccc3ncc(-c4cc(C(=O)OC5CNC5)ccn4)cc3c2)n1` [Compound 1074, azetidin-3-yl 2-[6-[5-(6-methyl-2-pyridyl)-1H-imidazol-4-yl]-3-quinolyl]pyridine-4-carboxylate] are 0.0398 to 0.316 nM and 25.1 to 158 nM.
For `Cc1cccc(-c2nc[nH]c2-c2ccc3ncc(-c4cnn([C@@H]5CCCC[C@H]5N)c4)cc3c2)n1` [Compound 448, (1R,2R)-2-[4-[6-[4-(6-methyl-2-pyridyl)-1H-imidazol-5-yl]-3-quinolyl]pyrazol-1-yl]cyclohexanamine], in that order: less than 0.0316 nM and 25.1 to 158 nM.
As to `Cc1nc(-c2n[nH]cc2-c2ccc3ncc(-c4cnn(C[C@@H]5CC[C@H](N)C5)c4)cc3n2)ccc1F` (racemic) [Compound 547, rac-(1S,3R)-3-[[4-[6-[3-(5-fluoro-6-methyl-2-pyridyl)-1H-pyrazol-4-yl]-1,5-naphthyridin-3-yl]pyrazol-1-yl]methyl]cyclopentanamine], the Ki in experiment [1] was 0.0398 to 0.316 nM. Further, the IC50 in experiment [2] was 200 to 1260 nM.
Regarding `Cc1cccc(-c2[nH]nnc2-c2ccc3ncc(N4CCC(N(C)C)C4)cc3c2)n1` (racemic) [Compound 561, rac-(3S)-N,N-dimethyl-1-[6-[5-(6-methyl-2-pyridyl)-1H-triazol-4-yl]-3-quinolyl]pyrrolidin-3-amine], the Ki in experiment [1] is less than 0.0316 nM. For the same compound, the IC50 in experiment [2] was 25.1 to 158 nM.
With `Cc1cccc(-c2[nH]cnc2-c2ccc3ncc(-c4csc(C(=O)OCCN5C[C@@H](C)N[C@@H](C)C5)c4)cc3c2)n1` [Compound 1222, 2-[(3S,5R)-3,5-dimethylpiperazin-1-yl]ethyl 4-[6-[5-(6-methyl-2-pyridyl)-1H-imidazol-4-yl]-3-quinolyl]thiophene-2-carboxylate], the Ki in experiment [1] is 0.0398 to 0.316 nM. Besides, the IC50 in experiment [2] is 25.1 to 158 nM.
For `Cc1cccc(-c2n[nH]cc2-c2ccc3ncc(-c4cccnc4)cc3n2)n1` [Compound 595, 2-[3-(6-methyl-2-pyridyl)-1H-pyrazol-4-yl]-7-(3-pyridyl)-1,5-naphthyridine], in that order: less than 0.0316 nM and less than 20 nM.
Take `Cc1cccc(-c2n[nH]cc2-c2ccc3ncc(N4CCCN(Cc5ccccc5)CC4)cc3n2)n1` [Compound 65, 7-(4-benzyl-1,4-diazepan-1-yl)-2-[3-(6-methyl-2-pyridyl)-1H-pyrazol-4-yl]-1,5-naphthyridine]: in experiment [1], the Ki is 0.0398 to 0.316 nM. In addition, the IC50 in experiment [2] was 200 to 1260 nM.
In the case of `Cc1cccc(-c2[nH]cnc2-c2ccc3ncc(N4CCNC(CC(=O)OC5CCNCC5)C4)cc3c2)n1` (stereo not shown) [Compound 689, 4-piperidyl 2-[4-[6-[5-(6-methyl-2-pyridyl)-1H-imidazol-4-yl]-3-quinolyl]piperazin-2-yl]acetate], in experiment [1], the Ki is 0.398 to 3.16 nM. Besides, in experiment [2], the IC50 is 200 to 1260 nM.
Turning to `Cc1cccc(-c2n[nH]cc2-c2ccc3ncc(NC4CCCNC4)cc3n2)n1` (stereo not shown) [Compound 543, 6-[3-(6-methyl-2-pyridyl)-1H-pyrazol-4-yl]-N-(3-piperidyl)-1,5-naphthyridin-3-amine], the Ki in experiment [1] was 0.0398 to 0.316 nM. Moreover, the IC50 in experiment [2] was 25.1 to 158 nM.
Turning to `Cc1cccc(-c2n[nH]cc2-c2ccc3ncc(N4CCN(CC(F)(F)F)CC4)cc3n2)n1` [Compound 266, 2-[3-(6-methyl-2-pyridyl)-1H-pyrazol-4-yl]-7-[4-(2,2,2-trifluoroethyl)piperazin-1-yl]-1,5-naphthyridine], in experiment [1], the Ki was 0.0398 to 0.316 nM. Further, in experiment [2], the IC50 was 25.1 to 158 nM.
